Measurements from PubChem BioAssay AID463136 (University of Pittsburgh Molecular Library Screening Center, 2010).
Records with an inconclusive call do not appear. Calls of active or inactive are those of the source. No rule for the calls is given here.

Columns and labels:
[1] = blockers of dynein-driven microtubule transport – imaging, high-content imaging, dose response (AID 463136); settings: HCS imaging, dynein-mediated cargo transport inhibition; inhibition at max concentration; at 50 µM; stronger effect = higher value;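 also: mouse mammary adenocarcinoma 3617.4 cells expressing GFP-tagged rat glucocorticoid receptor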; as to inhibition: reference of the scale not given here
[2] = tested on: HCS imaging, dynein-mediated cargo transport inhibition; assay: as above

Structure (SMILES) | inhibition [1] | IC50 [2]
CCOC(=O)c1c(NC(=S)N2CCOCC2)sc2c1CCN(C(=O)OCC)C2 | 74% | 33.2 µM
O=C(CCl)N(c1ccc(Cl)cc1)c1c[nH]c2ccccc12 | 10.3% | > 50 µM (inactive)
CC(C)(C)c1cc(CN(CCO)CCO)cc(C(C)(C)C)c1O | 33.9% | > 50 µM (inactive)
Cc1cccc(Cn2ncc(Cl)c(Cl)c2=O)c1 | 84.7% | 13 µM
O=[N+]([O-])c1ccc(C2=NN(c3ccccc3)C(c3ccco3)C2)cc1 (centres undefined) |  | 32.3 µM
O=C(/C=C/c1ccccc1)/C=C/c1ccccc1 | 45.9% | > 50 µM (inactive)
CCN(CC)c1ccc2cc(-c3nc(-c4ccc(OC)cc4)cs3)c(=O)oc2c1 | 98.4% | 25.7 µM
Cc1ccc(-n2nnnc2Sc2ccc(S(=O)(=O)NCCN(C)C)cc2[N+](=O)[O-])cc1 | 86.3% | 11.9 µM
COc1ccc(N(C(=O)CCl)C(C(=O)NCCc2ccccc2)c2cccs2)cc1Cl (centres undefined) | 93.6% | 14.8 µM
CC1(C)COC(/C=C/c2cccc([N+](=O)[O-])c2)=N1 | 88.6% | 10 µM
CC1=NN(c2ccccc2)C(=O)/C1=C/C=C/c1ccccc1 | 22.7% | > 50 µM (inactive)
O=[N+]([O-])c1c(NCCCO)cc(Sc2nc3ccccc3s2)c2nonc12 | -7.73% | > 50 µM (inactive)
Cc1ccc(N2C(=O)NC(=O)/C(=C/C=C/c3ccco3)C2=O)cc1 | 114% | 24.8 µM
O=C(CCl)c1ccc2c(c1)CCN2C(=O)C1CCCCC1 | 78.2% | 27 µM
Cn1cc(Br)c(NC(=O)/C=C/C(=O)O)n1 | 6.1% | > 50 µM (inactive)
CC(=O)/C=C/n1c(=S)oc2ccccc21 | 69.5% | 23.4 µM
Cc1[nH]c2ccccc2c1/C=N/Nc1ccc([N+](=O)[O-])cc1S(=O)(=O)Nc1ccc(Cl)cc1 | 112% | 22.8 µM
CNC(=O)c1nnsc1S(=O)c1ccc(Cl)cc1 (centres undefined) | 74.6% | 7.18 µM
O=[N+]([O-])c1ccc(N/N=C/c2c[nH]c3ccccc23)cc1 | 118% | 21.7 µM
CCCCNc1c2c3c(cccc3n(C)c1=O)C(=O)c1ccccc1-2 | 12% | > 50 µM (inactive)
CC[n+]1c(/C=C/C=C/N(C(C)=O)c2ccccc2)sc2cc(OC)ccc21 | 93.8% | 6.65 µM
Cc1cc2oc(=O)cc(Cn3ncc(Cl)c(Cl)c3=O)c2cc1Cl | 65.7% | 20.1 µM

Structure (SMILES) | inhibition [1] | IC50 [2]
CCCn1nc([N+](=O)[O-])c(C(C#N)c2nc3ccccc3s2)c(Cl)c1=O (centres undefined) | 97% | 14.6 µM
O=C(c1ccc(F)cc1)C(CN1CCOCC1)c1ccccc1 (centres undefined) | 85.7% | 7.15 µM
O=C(Nc1ccc(Cl)cc1)/C(=C/c1cccc(O)c1)c1nc2ccccc2s1 | 40.7% | > 50 µM (inactive)
COc1ccccc1-[n+]1c(C)cc(/C=C2\Sc3ccccc3N2C)cc1C | 92% | 9.31 µM
Cc1nc([N+](=O)[O-])c(Br)n1CC(=O)c1ccc2ccccc2c1 | 81.3% | 5.15 µM
Cc1cc(C)cc(N2C(=O)NC(=O)/C(=C\C=C\c3ccco3)C2=O)c1 | 88% | 32.3 µM
CCOC(=O)C1=C(Cc2ccc(OC)cc2)C(=O)c2ccccc2C1=O | 21.6% | > 50 µM (inactive)
Cc1ccc(/C=C2/C(=O)ON=C2c2ccccc2)o1 | 15.6% | > 50 µM (inactive)
COc1ccc([N+](=O)[O-])c(S(=O)(=O)c2ccc(Cl)cc2)n1 | 34.4% | > 50 µM (inactive)
Cc1ccc(SC(=O)c2c(C)noc2-c2cc(C)on2)cc1 | 37.3% | > 50 µM (inactive)
CC(=O)Cn1ncc(Br)c(Br)c1=O | 78.5% | 5.4 µM
C=CCn1c(C)cc(C(=O)Cn2ncc(Cl)c(Cl)c2=O)c1C | 86.5% | 10.3 µM
O=C(Nc1ccccc1)c1nnsc1S(=O)c1ccc(Cl)cc1 (centres undefined) | 32.1% | > 50 µM (inactive)
CC(=O)N(C1CC(C)C(C#N)(C#N)C1(C#N)C#N)N(C)C (centres undefined) | 5.79% | > 50 µM (inactive)
COc1ccc(NC(=O)/C(Cl)=C(/Cl)S(=O)Cc2ccccc2)cn1 (centres undefined) | 64.4% | 19.5 µM
Clc1ccc(-c2csc3ncnc(Cl)c23)cc1 | 72.9% | 40.5 µM
Cc1ccc(C2=NOC(=O)/C2=C\c2ccc(C)o2)cc1 | 79.8% | 39.9 µM
CCN1CCN(C2=C(Cl)C(=O)N(Cc3ccccc3)C2=O)CC1 | 87.8% | 20.9 µM
CCOC(=O)C(=Cc1cc(=O)c(OC)co1)C(=O)OCC | 87.9% | 6.45 µM
Cn1c(=O)c([N+](=O)[O-])c(Cl)c2ccccc21 | 84% | 39.4 µM
Cc1cccc2cc3c(N)c(C(=O)N4CCc5ccccc54)sc3nc12 |  | 5.15 µM
